Results from patent publication US20070082880A1 (priority 2005, published 2007).

The compounds below were run against T1, human PKCθ full length enzyme (Homo sapiens, UniProt Q04759) (assay: PKCθ IMAP Assay). Conditions: average value when one or more samples were tested; ATP 6 uM, PKCθ 1 nM.
T1 construct: human PKCθ full length enzyme (Panvera Catalog No. P2996); purchased Panvera P2996
Format: biochemical
Description: The materials used include the following: human PKCθ full length enzyme (Panvera Catalog No. P2996); substrate peptide: 5FAM-[…]-OH (Molecular Devices, RP7032); ATP (Sigma Cat # A2383); DTT (Pierce, 20291); 5× kinase reaction buffer (Molecular Devices, R7209); 5× binding buffer A (Molecular Devices, R7282), 5× binding buffer B (Molecular Devices, R7209); IMAP Beads (Molecular Devices, R7284); and 384-well plates (Corning Costar, 3710).
The reaction buffer was prepared by diluting the 5× stock reaction buffer and adding DTT to obtain a concentration of 3.0 mM. The binding buffer was prepared by diluting the 5× binding buffer A. A master mix solution was prepared using a 90% dilution of the reaction buffer containing 2×ATP (12 uM) and 2× peptide ([…]). […] The final concentration of compound was 2× and 10% DMSO. DMSO was added to the rest of the master mix to increase the concentration to 10%. 10 ul of the master mix containing 10% DMSO was added to the rest of the wells on the plate except the 2nd column. 20 ul was transferred from the first column to the 2nd column. The compounds were serially diluted in 2:1 ratio starting from the 2nd column. A 2× (2 nM) PKCθ solution was made in the reaction buffer. 10 ul of the PKCθ solution was added to every well to achieve these final concentrations: PKCθ—1 nM; ATP—6 uM; peptide—100 nM; DMSO—5%. Samples were incubated for 25 minutes at room temperature. The binding reagent was prepared by diluting the beads in 1× binding buffer to 800:1. 50 ul of the binding reagent was added to every well and incubated for 20 minutes. FP was measured using Envision2100 (PerkinElmer Life Sciences). Wells with no ATPs and wells with no enzymes were used as controls.

T1 sequence (Q04759 whole entry): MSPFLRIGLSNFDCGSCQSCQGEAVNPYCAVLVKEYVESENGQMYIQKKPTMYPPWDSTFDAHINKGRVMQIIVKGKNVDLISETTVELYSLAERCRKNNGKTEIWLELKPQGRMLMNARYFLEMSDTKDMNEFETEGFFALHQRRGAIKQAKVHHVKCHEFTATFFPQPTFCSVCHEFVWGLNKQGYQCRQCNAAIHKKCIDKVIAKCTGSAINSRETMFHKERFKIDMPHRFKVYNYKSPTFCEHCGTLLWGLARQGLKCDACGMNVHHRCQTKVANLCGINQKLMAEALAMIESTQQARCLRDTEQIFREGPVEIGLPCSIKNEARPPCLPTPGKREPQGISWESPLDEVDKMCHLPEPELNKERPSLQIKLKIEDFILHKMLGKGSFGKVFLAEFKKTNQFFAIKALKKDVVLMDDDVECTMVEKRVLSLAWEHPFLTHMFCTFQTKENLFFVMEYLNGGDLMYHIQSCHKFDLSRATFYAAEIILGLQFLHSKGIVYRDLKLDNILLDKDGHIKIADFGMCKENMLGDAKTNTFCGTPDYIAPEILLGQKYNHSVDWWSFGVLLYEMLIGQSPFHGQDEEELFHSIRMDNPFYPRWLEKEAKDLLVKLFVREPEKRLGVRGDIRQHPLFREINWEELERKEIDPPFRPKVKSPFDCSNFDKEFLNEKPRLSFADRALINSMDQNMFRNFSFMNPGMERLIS

| Structure (SMILES) | IC50 [nM] |
| --- | --- |
| CNS(=O)(=O)c1cccc(-c2cc3c(Nc4ccc5[nH]ccc5c4C)c(C#N)cnc3s2)c1 [Compound 343, 3-{5-cyano-4-[(4-methyl-1H-indol-5-yl)amino]thieno[2,3-b]pyridin-2-yl}-N-methylbenzenesulfonamide] | 30 |
| Cc1c(Nc2c(C#N)cnc3sc(/C=C/C(=O)N(C)CCN(C)C)cc23)ccc2[nH]ccc12 [Compound 312, (2E)-3-{5-cyano-4-[(4-methyl-1H-indol-5-yl)amino]thieno[2,3-b]pyridin-2-yl}-N-[2-(dimethylamino)ethyl]-N-methylacrylamide] | 151 |
| CS(=O)(=O)c1ccc(-c2cc3c(Nc4ccc5[nH]ccc5c4)c(C#N)cnc3s2)cc1 [Compound 234, 4-(1H-indol-5-ylamino)-2-[4-(methylsulfonyl)phenyl]thieno[2,3-b]pyridine-5-carbonitrile] | 130 |
| Cc1c(Nc2c(C#N)cnc3sc(-c4ccc(OCCCN(C)C)nc4)cc23)ccc2[nH]ccc12 [Compound 350, 2-{6-[3-(dimethylamino)propoxy]pyridin-3-yl}-4-[(4-methyl-1H-indol-5-yl)amino]thieno[2,3-b]pyridine-5-carbonitrile] | 34 |
| CN(C)Cc1cc(-c2cc3c(Nc4ccc5[nH]ccc5c4)c(C#N)cnc3s2)co1 [Compound 154, 2-{5-[(dimethylamino)methyl]-3-furyl}-4-(1H-indol-5-ylamino)thieno[2,3-b]pyridine-5-carbonitrile] | 180 |
| CN(C)Cc1ccc(-c2cc3c(Nc4ccc5[nH]ccc5c4)c(C#N)cnc3s2)o1 [Compound 153, 2-{5-[(dimethylamino)methyl]-2-furyl}-4-(1H-indol-5-ylamino)thieno[2,3-b]pyridine-5-carbonitrile] | 170 |
| N#Cc1cnc2sc(-c3cccc(CO)c3)cc2c1Nc1cccc2[nH]ccc12 [Compound 193, 2-[3-(hydroxymethyl)phenyl]-4-(1H-indol-4-ylamino)thieno[2,3-b]pyridine-5-carbonitrile] | 53 |
| N#Cc1cnc2sc(-c3cccc(CN4CCC(CCO)CC4)c3)cc2c1Nc1ccc2[nH]ccc2c1 [Compound 177, 2-(3-{[4-(2-hydroxyethyl)piperidin-1-yl]methyl}phenyl)-4-(1H-indol-5-ylamino)thieno[2,3-b]pyridine-5-carbonitrile] | 170 |
| Cc1c(Nc2c(C#N)cnc3sc(/C=C/C(=O)N4CCN(C)CC4)cc23)ccc2[nH]ccc12 [Compound 295, 4-[(4-methyl-1H-indol-5-yl)amino]-2-[(1E)-3-(4-methylpiperazin-1-yl)-3-oxoprop-1-en-1-yl]thieno[2,3-b]pyridine-5-carbonitrile] | 43 |
| COc1ccc(C=O)cc1-c1cc2c(Nc3ccc4[nH]ccc4c3)c(C#N)cnc2s1 [Compound 202, 2-(5-formyl-2-methoxyphenyl)-4-(1H-indol-5-ylamino)thieno[2,3-b]pyridine-5-carbonitrile] | 100 |
| CS(=O)(=O)Nc1cccc(-c2cc3c(Nc4ccc5[nH]ccc5c4)c(C#N)cnc3s2)c1 [Compound 359, N-{3-[5-cyano-4-(1H-indol-5-ylamino)thieno[2,3-b]pyridin-2-yl]phenyl}methanesulfonamide] | 245 |
| N#Cc1cnc2sc(-c3cccc(CNCC4CCCO4)c3)cc2c1Nc1ccc2[nH]ccc2c1 (stereo not shown) [Compound 179, 4-(1H-indol-5-ylamino)-2-(3-{[(tetrahydrofuran-2-ylmethyl)amino]methyl}phenyl) thieno[2,3-b] pyridine-5-carbonitrile] | 150 |
| CCCCOc1ccccc1-c1cc2c(Nc3ccc4[nH]ccc4c3C)c(C#N)cnc2s1 [Compound 381, 2-(2-butoxyphenyl)-4-[(4-methyl-1H-indol-5-yl)amino]thieno[2,3-b]pyridine-5-carbonitrile] | 1980 |
| Cc1c(Nc2c(C#N)cnc3sc(/C=C/C(=O)N4CCCCC4)cc23)ccc2[nH]ccc12 [Compound 298, 4-[(4-methyl-1H-indol-5-yl)amino]-2-[(1E)-3-oxo-3-piperidin-1-ylprop-1-en-1-yl]thieno[2,3-b]pyridine-5-carbonitrile] | 48 |
| Cc1c(Nc2c(C#N)cnc3sc(-c4ccc(S(N)(=O)=O)cc4)cc23)ccc2[nH]ccc12 [Compound 241, 4-{5-cyano-4-[(4-methyl-1H-indol-5-yl)amino]thieno[2,3-b]pyridin-2-yl}benzenesulfonamide] | 13 |
| Cc1c(Nc2c(C#N)cnc3sc(-c4ccc(NS(C)(=O)=O)cc4)cc23)ccc2[nH]ccc12 [Compound 361, N-(4-{5-cyano-4-[(4-methyl-1H-indol-5-yl)amino]thieno[2,3-b]pyridin-2-yl}phenyl)methanesulfonamide] | 43 |
| CN(C)Cc1cc(-c2cc3c(Nc4ccc5[nH]ccc5c4)c(C#N)cnc3s2)cs1 [Compound 212, 2-{5-[(dimethylamino)methyl]-3-thienyl}-4-(1H-indol-5-ylamino)thieno[2,3-b]pyridine-5-carbonitrile] | 37 |
| Cc1c(Nc2c(C#N)cnc3sc(-c4cccc(NS(C)(=O)=O)c4)cc23)ccc2[nH]ccc12 [Compound 360, N-(3-{5-cyano-4-[(4-methyl-1H-indol-5-yl)amino]thieno[2,3-b]pyridin-2-yl}phenyl)methanesulfonamide] | 23 |
| Cc1c(Nc2c(C#N)cnc3sc(C(=O)N4CCNCC4)cc23)ccc2[nH]ccc12 [Compound 265, 4-[(4-methyl-1H-indol-5-yl)amino]-2-(piperazin-1-ylcarbonyl)thieno[2,3-b]pyridine-5-carbonitrile] | 232 |
| Cc1c(I)sc2ncc(C#N)c(Nc3ccc4[nH]ccc4c3)c12 [Compound 317, 4-(1H-Indol-5-ylamino)-2-iodo-3-methylthieno[2,3-b]pyridine-5-carbonitrile] | 718 |
| N#Cc1cnc2sc(C(=O)N3CCCC3)cc2c1Nc1ccc2[nH]ccc2c1 [Compound 250, 4-(1H-indol-5-ylamino)-2-(pyrrolidin-1-ylcarbonyl)thieno[2,3-b]pyridine-5-carbonitrile] | 1040 |

The remaining lines, values ahead:

| IC50 [nM] | Structure (SMILES) |
| --- | --- |
| 171 | Cc1c(Nc2c(C#N)cnc3sc(-c4cc5cc(CN(C)C)ccc5s4)cc23)ccc2[nH]ccc12 [Compound 467, 2-{5-[(dimethylamino)methyl]-1-benzothien-2-yl}-4-[(4-methyl-1H-indol-5-yl)amino]thieno[2,3-b]pyridine-5-carbonitrile] |
| 1 | Cc1c(Nc2c(C#N)cnc3sc(-c4ccccc4OCCN(C)C)cc23)ccc2[nH]ccc12 [Compound 399, 2-{2-[2-(dimethylamino)ethoxy]phenyl}-4-[(4-methyl-1H-indol-5-yl)amino]thieno[2,3-b]pyridine-5-carbonitrile] |
| 50 | Cc1c(Nc2c(C#N)cnc3sc(-c4ccccc4OC[C@@H](O)CO)cc23)ccc2[nH]ccc12 [Compound 492, 2-(2-{[(2S)-2,3-dihydroxypropyl]-oxy}phenyl)-4-[(4-methyl-1H-indol-5-yl)amino]thieno[2,3-b]pyridine-5-carbonitrile] |
| 93 | CCCOc1ccc(CN(C)C)cc1-c1cc2c(Nc3ccc4[nH]ccc4c3C)c(C#N)cnc2s1 [Compound 384, 2-{5-[(dimethylamino)methyl]-2-propoxyphenyl}-4-[(4-methyl-1H-indol-5-yl)amino]thieno[2,3-b]pyridine-5-carbonitrile] |
| 153 | Cc1c(Nc2c(C#N)cnc3sc(C4=CCN(Cc5ccccc5)CC4)cc23)ccc2[nH]ccc12 [Compound 476, 2-(1-benzyl-1,2,3,6-tetrahydropyridin-4-yl)-4-[(4-methyl-1H-indol-5-yl)amino]thieno[2,3-b]pyridine-5-carbonitrile] |
| 954 | CC(C)(C)OC(=O)N1CC=C(c2cc3c(Nc4ccc5[nH]ccc5c4)c(C#N)cnc3s2)CC1 [Compound 419, tert-butyl 4-[5-cyano-4-(1H-indol-5-ylamino)thieno[2,3-b]pyridin-2-yl]-3,6-dihydropyridine-1(2H)-carboxylate] |
| 33 | C=Cc1cc2c(Nc3ccc4[nH]ccc4c3C)c(C#N)cnc2s1 [Compound 417, 4-[(4-methyl-1H-indol-5-yl)amino]-2-vinylthieno[2,3-b]pyridine-5-carbonitrile] |
| 29 | CNS(=O)(=O)c1ccc(-c2sc3ncc(C#N)c(Nc4ccc5[nH]ccc5c4C)c3c2C)cc1 [Compound 414, 4-{5-cyano-3-methyl-4-[(4-methyl-1H-indol-5-yl)amino]thieno[2,3-b]pyridin-2-yl}-N-methylbenzenesulfonamide] |
| 140 | Cc1c(Nc2c(C#N)cnc3sc(-c4cc5cc(C=O)ccc5s4)cc23)ccc2[nH]ccc12 [Compound 374, 2-(5-formyl-1-benzothien-2-yl)-4-[(4-methyl-1H-indol-5-yl)amino]thieno[2,3-b]pyridine-5-carbonitrile] |
| 2 | Cc1c(Nc2c(C#N)cnc3sc(-c4cncc(C=O)c4)cc23)ccc2[nH]ccc12 [Compound 387, 2-(5-formylpyridin-3-yl)-4-[(4-methyl-1H-indol-5-yl)amino]thieno[2,3-b]pyridin-5-carbonitrile] |
